Data taken from patent US20100093777A1 (Takeda Pharmaceutical Company Limited, priority 2007, published 2010).
pIC50: −log10 of the molar value.

Columns and labels:
[1] = target: T1, Human ACC2 (Nd, N terminal deleted) (Homo sapiens, UniProt O00763); test: Measurement of ACC2 inhibitory activity (recombinant ACC2 (Nd), malachite green absorbance); assay type: biochemical; details: recombinant human ACC2 (Nd) 6.4 μg/ml; 30° C.; 200 μM ATP, 200 μM Acetyl-CoA; absorbance 620 nm
T1 construct: His tag (from the pFAST-BacHTa vector); own knowledge: N-terminal 6xHis with TEV site; made in house; host or cells: SF-9 insect cells, recombinant baculovirus BAC-ACC2 (Nd)
Procedure: The ACC2 inhibitory action of the compound of the present invention was evaluated by the following method.
(§1) Human ACC2 gene was cloned by PCR using a human skeletal muscle cDNA library (Clontech) as a template and Primer 1 and Primer 2 shown below. Primer 1 and Primer 2 were prepared by adding SalI, XbaI restriction enzyme recognition sequences based on the information of the base sequence (Genbank Accession U89344) of human ACC2 gene.
(§2) PCR was performed using Pyrobest DNA polymerase (TAKARA BIO INC.). The obtained PCR product was cloned to pT7 Blue vector (Novagen) and, after confirmation of the base sequence, digested with restriction enzymes SalI and XbaI. The obtained DNA fragment was inserted into pFAST-BacHTa (Invitrogen) digested with restriction enzymes SalI and XbaI to give expression plasmid ACC2/pFAST-BacHTa.
PCR was performed using the expression plasmid as a template and Primer 3 and Primer 4 shown below to prepare a plasmid to be used for expression of ACC2 free of mitochondrial targeting sequence.
as §2, with “Pyrobest-DNA” for “Pyrobest DNA”, “AflII.” for “XbaI.”, “AflII” for “XbaI”, “ACC2mito7/pFAST-BacHTa.” for “ACC2/pFAST-BacHTa.”
Using the expression plasmid and BAC-TO-BAC Baculovirus Expression System (Invitrogen), virus stock BAC-ACC2 (N terminal deleted (hereinafter Nd)) of recombinant Baculovirus was prepared.
SF-9 cells (Invitrogen) were inoculated to a medium (2 L) for insect cells (Sf-900IISFM medium (Invitrogen) containing 10% fetal bovine serum (Trace), 50 mg/L Gentamicin (Invitrogen), 0.1% Pluronic F-68 (Invitrogen)) at 0.5×10^6 cells/mL, and cultured with shaking in Wave Bioreactor (Wave) at 27° C., 20 rpm, rocking angle […], oxygen concentration 30%.
On day 4 of the culture, 3 L of the medium for insect cells was added, the rocking angle was set to 8°, and the cells were cultured. On day 5 of the culture, 100 mL of recombinant Baculovirus BAC-ACC2 (Nd) was added, 5 L of the medium for insect cells was further added, the rocking angle was set to 11°, and the cells were cultured for 3 days. The culture medium was centrifuged at 1000×g for 10 min to give virus-infected cells. The cells were washed with phosphate buffered saline (Invitrogen) and centrifuged under the same conditions. The obtained cells were cryopreserved at −80° C.
The cryopreserved cells were thawed in ice and suspended in 900 mL of 25 mM HEPES buffer (pH 7.5) containing 10% Glycerol, 0.13 M NaCl, 1 mM EDTA, 25 mM Sodium βGlycerophosphate and 1 mM Sodium Orthovanadate, and supplemented with Complete Protease Inhibitor (Nippon Boehringer Ingelheim Co., Ltd.). The obtained suspension was homogenized 3 times in a polytron homogenizer (Kinematica) at 20,000 rpm for 30 sec. The obtained cell disruption solution was clarified by centrifugation at 31000×g for 60 min, and filtered through a 0.45 μm filter. The filtrate was passed through a column packed with 60 mL of Ni-NTA Super Flow Gel (QUIAGEN) at a flow rate of about 5 mL/min. The column was washed with buffer A (50 mM HEPES (pH 7.5) containing 0.3 M NaCl), further washed with buffer A containing 20 mM Imidazole, and eluted with buffer A containing 100 mM Imidazole. The eluate was concentrated with Vivaspin 20 (Vivascience) with a molecular weight cut off of 30K. The obtained concentrate was dialyzed against 50 mM HEPES (pH 7.5) containing 10 mM MgCl2, 2[…] Dithiothreitol, 10 mM Tripotassium Citrate and 0.3 M NaCl. The inner dialysate was filtered through a 0.22 μm filter to give ACC2 (Nd). The obtained ACC2 (Nd) was cryopreserved at −80° C.
A test compound was dissolved in dimethyl sulfoxide (DMSO) and the mixture was diluted with an enzyme reaction buffer and the resulting solution (5 μl) was added to each well.

Human ACC1 = target: T2, Human ACC1 (Homo sapiens, UniProt Q13085); test: Measurement of ACC1 inhibitory activity (recombinant enzyme, malachite green absorbance); assay type: biochemical; details: recombinant human ACC1 8 μg/ml; 30° C.; 200 μM ATP, 200 μM Acetyl-CoA; absorbance 620 nm
T2 construct: His tag (from the pFAST-BacHTc vector); own knowledge: N-terminal 6xHis with TEV site; made in house; host or cells: SF-9 insect cells, recombinant baculovirus BAC-ACC1
Procedure: The ACC1 inhibitory action of the compound of the present invention was evaluated by the following method.
as §1, with “ACC1” for “ACC2”, “liver” for “skeletal muscle”, “NotI” for “XbaI”, “sequence” for “sequences”, “U19822)” for “U89344)”
as §2, with “using a” for “using”, “INC.)” for “INC.).”, “NotI.” for “XbaI.”, “to pFAST-BacHTc” for “into pFAST-BacHTa”, “NotI” for “XbaI”, “ACC1/pFAST-BacHTc.” for “ACC2/pFAST-BacHTa.”
Using the expression plasmid and BAC-TO-BAC Baculovirus Expression System (Invitrogen), virus stock BAC-ACC1 of recombinant Baculovirus was prepared.
SF-9 cells (Invitrogen) were inoculated to a medium (1 L) for insect cells (Sf-900IISFM medium (Invitrogen) containing 10% fetal bovine serum (Trace), 50 mg/L Gentamicin (Invitrogen) and 0.1% Pluronic F-68 (Invitrogen)) at 1×10^6 cells/mL, and cultured with shaking at 27° C., 100 rpm in a 2 L Erlenmeyer flask.
After 24 hr of the culture, recombinant Baculovirus BAC-ACC1 (10 mL) was added, and the cells were further cultured for 3 days. The culture medium was centrifuged at 1000×g for 5 min to give virus-infected cells. The cells were washed with phosphate buffered saline (Invitrogen), and centrifuged under the same conditions, and the obtained cells were cryopreserved at −80° C.
The cryopreserved cells were thawed in ice and suspended in 100 mL of 25 mM HEPES buffer (pH 7.5) containing 10% Glycerol, 0.13 M NaCl, 1 mM EDTA, 25 mM Sodium β-Glycerophosphate and 1 mM Sodium Orthovanadate, and supplemented with Complete Protease Inhibitor (Nippon Boehringer Ingelheim Co., Ltd.). The obtained suspension was homogenized 3 times in a polytron homogenizer (Kinematica) at 20,000 rpm for 30 sec. The obtained cell disruption solution was clarified by centrifugation at 185700×g for 50 min, and filtered through a 0.45 μm filter. The filtrate was passed through a column packed with 12 mL of Ni-NTA Super Flow Gel (QUIAGEN) at a flow rate of about 5 mL/min. The column was washed with buffer A (50 mM HEPES (pH 7.5) containing 0.3 M NaCl), further washed with buffer A containing 20 mM Imidazole, and eluted with buffer A containing 100 mM Imidazole. The eluate was concentrated with Vivaspin 20 (Vivascience) with a molecular weight cut off of 30K. The obtained concentrate was dialyzed against Sephadex G-25 (Amersham Biosciences, 358 ml) equilibrated with 50 mM HEPES (pH 7.5) containing 10 mM MgCl2, 2 mM Dithiothreitol, 10 mM Tripotassium Citrate and 0.3 M NaCl. The inner dialysate was concentrated with Vivaspin 20 (Vivascience) with a molecular weight cut off of 30K, and the concentrate was filtered through a 0.22 μm filter to give ACC1. The obtained ACC1 was cryopreserved at −80° C.
ACC1 (0.93 mg/ml) obtained in the above-mentioned (2) was diluted with an enzyme reaction buffer (50 mM HEPES (pH 7.5), 10 mM MgCl2, 10 mM Tripotassium Citrate, 2 mM Dithiothreitol, 0.75 mg/ml Fatty acid free BSA) to concentration of 8 μg/ml, and the mixture was added to each well of 384 well assay plate (Nunc 265196) by 10 μl.
Thereafter, ACC1 inhibitory rate (%) was measured in the same manner as in the below-mentioned Experimental Example 2-(3), and IC50 value was calculated.
ACC2 (Nd) (1.1 mg/ml) obtained in the above-mentioned (2) was diluted with an enzyme reaction buffer (50 mM HEPES (pH 7.5), 10 mM MgCl2, 10 mM Tripotassium Citrate, 2 mM Dithiothreitol, 0.75 mg/ml Fatty acid free BSA) to a concentration of 6.4 μg/ml, and the mixture was added to each well of a 384 well assay plate (Nunc 265196) by 10 μl. […]

T1 sequence (O00763 117-2458 limits assumed, stated change not applied): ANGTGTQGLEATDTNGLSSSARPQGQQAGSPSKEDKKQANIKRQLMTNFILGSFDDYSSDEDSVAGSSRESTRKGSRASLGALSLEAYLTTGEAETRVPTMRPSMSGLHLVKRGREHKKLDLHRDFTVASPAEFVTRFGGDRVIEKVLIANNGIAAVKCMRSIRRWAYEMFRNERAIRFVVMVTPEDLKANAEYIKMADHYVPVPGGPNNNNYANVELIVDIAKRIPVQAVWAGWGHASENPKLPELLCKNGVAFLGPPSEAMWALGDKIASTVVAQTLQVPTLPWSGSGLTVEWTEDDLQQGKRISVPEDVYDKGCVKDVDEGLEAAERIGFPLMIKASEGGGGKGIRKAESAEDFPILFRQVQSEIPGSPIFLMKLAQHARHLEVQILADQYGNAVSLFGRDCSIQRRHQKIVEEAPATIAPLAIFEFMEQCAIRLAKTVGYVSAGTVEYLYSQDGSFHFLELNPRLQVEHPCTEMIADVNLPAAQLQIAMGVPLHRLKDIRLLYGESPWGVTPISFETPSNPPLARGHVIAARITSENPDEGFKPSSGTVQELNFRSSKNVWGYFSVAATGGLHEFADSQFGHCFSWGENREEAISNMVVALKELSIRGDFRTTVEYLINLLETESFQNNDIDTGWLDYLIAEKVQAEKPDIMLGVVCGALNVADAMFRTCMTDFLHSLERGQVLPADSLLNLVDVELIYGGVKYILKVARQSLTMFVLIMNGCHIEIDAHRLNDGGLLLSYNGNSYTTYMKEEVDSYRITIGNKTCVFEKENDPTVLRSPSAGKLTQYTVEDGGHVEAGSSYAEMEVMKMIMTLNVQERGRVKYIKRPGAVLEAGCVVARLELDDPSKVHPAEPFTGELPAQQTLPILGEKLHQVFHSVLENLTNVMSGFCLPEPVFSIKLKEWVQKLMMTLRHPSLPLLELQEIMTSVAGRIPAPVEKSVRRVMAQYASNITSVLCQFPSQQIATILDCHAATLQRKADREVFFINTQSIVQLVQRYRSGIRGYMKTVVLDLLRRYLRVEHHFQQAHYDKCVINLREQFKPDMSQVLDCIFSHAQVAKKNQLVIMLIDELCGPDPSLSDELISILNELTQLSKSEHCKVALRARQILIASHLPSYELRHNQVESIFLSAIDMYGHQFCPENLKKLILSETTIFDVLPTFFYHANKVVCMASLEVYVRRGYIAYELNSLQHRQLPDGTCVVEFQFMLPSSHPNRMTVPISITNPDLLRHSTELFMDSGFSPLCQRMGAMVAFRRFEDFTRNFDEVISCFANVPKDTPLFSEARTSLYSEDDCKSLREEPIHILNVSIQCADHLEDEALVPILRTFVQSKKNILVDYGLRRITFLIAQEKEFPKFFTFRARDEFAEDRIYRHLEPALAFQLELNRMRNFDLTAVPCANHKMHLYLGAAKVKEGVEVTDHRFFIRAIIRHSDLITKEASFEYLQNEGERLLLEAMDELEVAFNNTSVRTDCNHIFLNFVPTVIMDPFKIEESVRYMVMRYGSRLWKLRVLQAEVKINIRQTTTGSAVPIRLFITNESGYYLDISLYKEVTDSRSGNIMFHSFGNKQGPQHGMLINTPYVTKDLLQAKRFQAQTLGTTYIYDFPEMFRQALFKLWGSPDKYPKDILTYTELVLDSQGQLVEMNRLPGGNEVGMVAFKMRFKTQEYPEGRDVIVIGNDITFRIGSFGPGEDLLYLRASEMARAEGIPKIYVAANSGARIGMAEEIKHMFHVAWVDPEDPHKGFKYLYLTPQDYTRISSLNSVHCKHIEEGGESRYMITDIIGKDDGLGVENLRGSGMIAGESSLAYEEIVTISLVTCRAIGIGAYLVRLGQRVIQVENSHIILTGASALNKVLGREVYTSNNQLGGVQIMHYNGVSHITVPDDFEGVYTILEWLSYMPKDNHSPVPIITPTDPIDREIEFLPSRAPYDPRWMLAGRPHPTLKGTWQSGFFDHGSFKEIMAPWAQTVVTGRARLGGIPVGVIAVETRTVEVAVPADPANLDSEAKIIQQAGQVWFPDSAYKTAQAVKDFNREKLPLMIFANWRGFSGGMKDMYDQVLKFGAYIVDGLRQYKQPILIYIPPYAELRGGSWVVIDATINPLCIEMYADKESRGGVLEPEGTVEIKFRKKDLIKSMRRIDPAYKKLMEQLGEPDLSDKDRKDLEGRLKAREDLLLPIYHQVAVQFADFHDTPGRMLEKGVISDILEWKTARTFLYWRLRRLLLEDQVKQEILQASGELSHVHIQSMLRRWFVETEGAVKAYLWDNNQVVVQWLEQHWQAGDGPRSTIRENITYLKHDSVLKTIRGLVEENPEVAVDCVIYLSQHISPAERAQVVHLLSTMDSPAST

## CNC(=O)Nc1sc2nc(C)ccc2c1C(=O)N1CCC(N2CCCC3(CCN(C(C)C)C3=O)C2)CC1 (centres unmarked) [Example 64, N-(3-{[4-(2-isopropyl-1-oxo-2,7-diazaspiro[4.5]dec-7-yl)piperidin-1-yl]carbonyl}-6-methylthieno[2,3-b]pyridin-2-yl)-N′-methylurea]
other
  melting point: 195 to 198 °C

## CNC(=O)Nc1sc2nc(C)ccc2c1C(=O)N1CCC(N2CCCC3(C2)CC(C)(C)OC3=O)CC1 (centres unmarked) [Example 78, N-(3-{[4-(3,3-dimethyl-1-oxo-2-oxa-7-azaspiro[4.5]dec-7-yl)piperidin-1-yl]carbonyl}-6-methylthieno[2,3-b]pyridin-2-yl)-N′-methylurea]
[1]
  pIC50: 8.00 to 9.00
Human ACC1
  pIC50: 7.00 to 8.00

## CCNC(=O)Nc1sc2nc(C)ccc2c1C(=O)N1CCC(N2CCCC3(C2)CC(C)(C)OC3=O)CC1 (centres unmarked) [Example 79, N-(3-{[4-(3,3-dimethyl-1-oxo-2-oxa-7-azaspiro[4.5]dec-7-yl)piperidin-1-yl]carbonyl}-6-methylthieno[2,3-b]pyridin-2-yl)-N′-ethylurea]
[1]
  pIC50: 8.00 to 9.00
Human ACC1
  pIC50: 7.00 to 8.00
